Results as given in patent publication US11370757B2, “Photocleavable nitroindoline-based crosslinkers” (priority 2017, dated 2022).
*1 amine or outer side, *2 acyl side, *3 side chain or, on linkers, in order; H or OH if unused. Where a SMILES comes first, the peptide text is derived from it. [ ]: non-standard residue; d: D form. X1 = O=C(c1cc2c(c([N+](=O)[O-])c1)N([*:1])CC2)[*:2]; Hyp = O=C(O)[C@@H]1C[C@@H](O)CN1

What was measured:
[1] = Two-photon photolysis followed by fluorescence decay under a femtosecond laser at 710 nm; type: physicochemical; settings: 710 nm femtosecond laser, 100 to 200 mW; film/gel on microscope slide; slope 2 = two-photon process
Source text: Two-photon microscope. The details of the in-housed developed two-photon microscope was previously described (Acosta et al., (2014) Biomed. Opt. Express 5, 3990-4001). In summary the light source is a mode-locked Ti:Sapphire laser (Maitai H P, 690-1040 nm, 100 fs, 80 MHz, Newport, Santa Clara, Calif.). The inventors have used 710 nm light to achieve two-photon excitation of N-acyl-nitroindoline. The home-built x-y scanner (polygon, galvanometer) can achieve 30 frames/s scanning rate. The laser power at the sample site is varied by rotating a half-wave plate in front of a polarizer. The fluorescence signal from the sample are detected in three spectral channels with photomultiplier tubes (PMTs): red (570-616 nm), green (500-550 nm), and blue (417-477 nm). […]
Several spots within the sample were irradiated under the two-photon microscope using 710 nm light with varying excitation laser output powers ranging from 100 to 200 mW with increments of 25 mW. […] Therefore, as the photolysis reaction progresses, the fluorescent peptide 1 is consumed, and consequentially a decrease in average fluorescence intensity at the irradiation site is observed. For each irradiated spot, a time series of fluorescence images was recorded at every minute to track the fluorescence intensity decay throughout the photo induced reaction process (FIG. 4a-4d). […]

[2] = system: human mesenchymal stem cells; type: cell-based
Source text: Culture and passaging of human Mesenchymal Stem Cells (MSC). Human adipose derived mesenchymal stem cells were obtained from Lonza at passage=3 (Lonza, Allendale, N.J., USA) and cultured according to manufacturer's recommendations. Certification was obtained and kept in file to ensure that the purchased human MSC (Lonza) was verified to be of the correct lineage and uncontaminated by other cell types or organisms. For the human MSC culture, a complete growth medium (Lonza) specifically MSCGM human Mesenchymal Stem Cell (HMSC) growth BulletKit™ Medium (Lonza) was used for maintaining the mesenchymal stem cells in an undifferentiated state. This medium is referred to as complete growth medium for HMSC here onwards. Prior to cell seeding, T-75 culture flasks were coated with 0.1% gelatin (Sigma Aldrich, St. Louis, Mo., USA) and incubated (37° C., 1 h). After this, the cell suspension in complete culture medium was transferred to a gelatin coated T-75 flask and incubated for 1 h (37° C., 5% CO2 and 95% RH). Prior to cell culture, the gelatin solution used for coating of the flasks was aspirated. After 70% confluency in culture was attained, cells were trypsizined and passaged for further experiments. […] Following this, cells were seeded atop this layer and cultured for 24 hours after which they were imaged using fluorescence microscopy (Zeiss Axiovision).

[3] = type: physicochemical
Experimental: Circular Dichroism (CD) of peptide 1 and thermal stability measurements. Far-UV CD studies were conducted to study the secondary structure of peptide 1. The measurements were carried out using a 20 μM solution of the lyophilized peptide 1 in 15 mM NaCl and 10 mM Na/K buffer (pH 6.8). The sample was placed into a quartz cuvette of 1 mm path length (Jasco) and heated from 20° C.-70° C. to characterize its thermal stability. At each temperature, the sample was equilibrated for 4 min prior measurement of the spectrum. CD scans were performed at a range from 196-240 nm with three accumulations of data at each temperature to improve the S/N ratio. Each spectrum underwent 11 point Savitzky-Golay smoothing to minimize high frequency noise. The experimentally estimated ellipticities (Gobs) were converted to mean molar ellipticity [θ] using the formula: [θ]=(θobs)/ncl where l is the path length of the cuvette; c is the concentration of the peptide, and n is the number of […] in the peptide.

Row | SMILES | slope of the regression line in the double-log plot of reaction rate vs. laser intensity [1] | cytotoxicity to cultured mesenchymal stem cells [2] | stability of the structure at physiological temperature [3]
1 | O=C(NCC(=O)N1CCc2cc(Br)cc([N+](=O)[O-])c21)OCC1c2ccccc2-c2ccccc21 [compound 13, N-Fmoc-glycyl-5-bromo-7-nitroindoline] | 1.996 | – | –
2 | NC(=O)CNC(=O)[C@@H]1CCCN1C(=O)[C@@H]1C[C@@H](O)CN1C(=O)CNC(=O)[C@@H]1CCCN1C(=O)[C@@H]1CCCN1C(=O)c1cc2c(c([N+](=O)[O-])c1)N(C(=O)CNC(=O)[C@@H]1CCCN1C(=O)[C@@H]1C[C@@H](O)CN1C(=O)CNC(=O)[C@@H]1CCCN1C(=O)[C@@H]1CCCN1C(=O)c1cc3c(c([N+](=O)[O-])c1)N(C(=O)CNC(=O)[C@@H]1CCCN1C(=O)[C@@H]1C[C@@H](O)CN1C(=O)CNC(=O)[C@@H]1CCCN1C(=O)[C@@H]1CCCN1C(=O)c1cc4c(c([N+](=O)[O-])c1)N(C(=O)CNC(=O)[C@@H]1CCCN1C(=O)[C@@H]1C[C@@H](O)CN1C(=O)CNC(=O)[C@@H]1CCCN1C(=O)[C@@H]1CCCN1C(=O)c1cc5c(c([N+](=O)[O-])c1)N(C(=O)CNC(=O)[C@@H]1CCCN1C(=O)[C@@H]1C[C@@H](O)CN1C(=O)CNC(=O)[C@@H]1CCCN1C(=O)[C@@H]1CCCN1)CC5)CC4)CC3)CC2 [peptide 1] (H-PPG[Hyp]PG[X1]PPG[Hyp]PG[X1]PPG[Hyp]PG[X1]PPG[Hyp]PG[X1]PPG[Hyp]PG-NH2) | – | not cytotoxic | very stable
